Laboratory results published in patent US20240418723A1, “SEQUENTIAL TREATMENTS AND BIOMARKERS TO REVERSE RESISTANCE TO KINASE INHIBITORS” (Queen Mary University of London, priority 2021, published 2024).

Assays:
P31/Fuj AML cells = assay: Sequential treatment of P31/Fuj cells (ATRA or LSD1 inhibitor 5 days, then MEKi 3 days; also co-treatment and reverse treatment): cell viability, cell number, apoptosis, CDI; type: cell-based; conditions: for drug interaction with MEKi in sequential treatment (CDI): alternative LSD1 inhibitor 5 days then trametinib 3 days, P31/Fuj cells (FIGS. 10 D, E)
Method: The Bliss independence model was used to derive coefficients of drug interaction (CDI) values, where CDI <1 indicates significant priming by the […] (synergistic effect).
For the proliferation/viability assays, cells were seeded in T75 flasks (0.5×10^6 cells/mL of RPMI/FBS medium) and exposed for 5 days to either vehicle or epigenetic modifier. Unless otherwise specified, the final concentration for GSK2879552 (LSD1i), […] (EZH2i), pinometostat (DOT1Li) and ATRA was 1 μM while for decitabine (DNMTAi) and vorinostat (HDACi) was 100 nM; all epigenetic inhibitors were diluted in DMSO, while ATRA was diluted in Et-OH. Vehicle concentration was kept at 0.1%. […] The final concentration of DMSO was kept at 0.1%. Finally, cells were transferred to 96-well plates (100 μL per well in 3 technical replicates per condition) and cell viability and proliferation were assessed using Guava and ApoTox-Glo Triplex analyses, as indicated below.
For Guava analysis, cells were stained with Guava ViaCount reagent (Luminex #4000-0040) in 96-well plates, by mixing 150 μL of cell suspension with 75 μL of reagent, and left to incubate for a minimum of 10 minutes in the dark, after which they were processed through a Guava easyCyte flow cytometer (Luminex #0500-5005). Flow cytometry data were analysed using CytoSoft (v2.5.7). Viability and cell number values were expressed relative to vehicle control.
For ApoTox-Glo analysis, cell suspensions were transferred to opaque 96-well plates (100 μL per well) and viability and apoptosis measured using ApoTox-Glo Triplex Assay (Promega #G6320). 20 μL of Viability/Cytotoxicity reagent (containing GF-AFC and bis-AAF-R110 substrates) were added to each well, then incubated at 37° C. for 1 hour. Live cell and cytotoxicity outputs were measured on FLUOstar Omega microplate reader (BMG Labtech). To obtain the live cell output, fluorescence was measured at 355EX/520EM (wavelengths in nm); for the cytotoxicity output, fluorescence was measured at 485EX/520EM. Following this, 100 μL of Caspase-Glo 3/7 reagent were added to each well and incubated at 25° C. for 1 hour. Luminescence was then measured on FLUOstar Omega microplate reader (BMG Labtech). The fluorescence and luminescence signals thus obtained were corrected to the respective background controls (culture medium with no cells). Relative cell number values were obtained by normalising live cell outputs to vehicle control. Apoptosis values were obtained by dividing luminescence outputs to the respective live cell outputs, then normalising to vehicle control.
The extent of drug interaction was calculated in Microsoft Excel 2016 using the CDI formula AB/(A*B), where AB is the normalized reduction in cell viability of the sequential treatment, and A and B are the effects of single treatments. Statistical significance of CDI values for each AML sample was determined using a one sample t-test (base R package) with the null hypothesis being that the mean Log2(CDI) equals 0.

P31/Fuj cells = assay: Phosphoproteomics (LC-MS/MS) and kinase network analysis of treated P31/Fuj cells
Method: To study ATRA effect over the phosphoproteome, P31/Fuj cells (10×10^6 cells at 0.5×10^6 cell/mL) were seeded in T75 flask and treated with either Et-OH, 1 μM ATRA or 10 μM ATRA for 5 days. […] For both experiments, cells were collected by centrifugation (1500 rpm for 5 min at 5° C.), then cell pellets were washed twice with ice cold PBS supplemented with phosphatase inhibitors (1 mM Na3VO4, 1 mM NaF) and stored at −80° C. Pellets were processed for phosphoproteomics analysis as indicated below.
In brief, cell pellets were lysed in 300 μL of urea buffer (8 M urea in 20 mM HEPES, pH 8.0, supplemented with 1 mM Na3VO4, 1 mM NaF, 1 mM Na4P2O7 and 1 mM P-glycerophosphate). Lysates were further homogenized by sonication (30 cycles of 30 s on 30 s off; Diagenode Bioruptor® Plus) and insoluble material was removed by centrifugation. Protein was quantified using BCA (Thermo Fisher Scientific). Then, 500 μg of protein were subjected to cysteine alkylation using sequential incubation with 10 mM dithiothreitol (DDT) and 16.6 mM iodoacetamide (IAM) for 1 h and 30 min, respectively, at 25° C. with agitation. Trypsin beads (50% slurry of TLCK-trypsin; Thermo Fisher Scientific; Cat. #20230) were equilibrated with 3 washes with 20 mM HEPES (pH 8.0), the urea concentration in the protein suspensions was reduced to 2 M by the addition of 20 mM HEPES (pH 8.0), 100 μL of equilibrated trypsin beads were added and the samples were incubated overnight at 37° C. Trypsin beads were removed by centrifugation (2000×g at 5° C. for 5 min) and the resulting peptide solutions were desalted through Oasis HLB cartridges (Waters) following the manufacturer's indications. Briefly, cartridges were set in a vacuum manifold device and the pressure was adjusted to 5 mmHg. Then, cartridges were conditioned with 1 mL acetonitrile (ACN) and equilibrated with 2.5 mL of wash solution (0.1% trifluoroacetic acid (TFA), 2% ACN). Peptides were loaded in the cartridges and washed with 1 mL of wash solution. Finally, peptides were eluted with 500 μL of glycolic acid buffer 1 (1 M glycolic acid, 5% TFA, 50% ACN). Enrichment of phosphorylated peptides was performed with TiO2 Beads (GL Sciences). The eluents were normalized to 1 mL with glycolic acid buffer 2 (1 M glycolic acid, 5% TFA, 80% ACN) and incubated with 50 μl of TiO2 buffer (50% slurry in 1% TFA) for 5 min at room temperature. TiO2 beads were packed by centrifugation into empty spin columns (Glygen Corporation; Cat. TT2EMT) previously washed with ACN. TiO2 beads were sequentially washed by centrifugation (1500×g for 3 min) with 100 μL of glycolic acid buffer 2, ammonium acetate solution (100 mM ammonium acetate in 25% ACN) and twice with neutral solution (10% ACN). For phosphopeptide elution, spin tips were transferred to fresh tubes, 50 μL of elution solution (5% NH4OH, 7.5% ACN) were added and tips were centrifuged at 1500×g for 3 min. The elution step was repeated a total of 4 times. Finally, samples were snap frozen, dried in a SpeedVac and phosphopeptide pellets were stored at −80° C.

| SMILES | drug interaction with MEKi in sequential treatment (CDI) (P31/Fuj AML cells) | sensitisation to MEKi (trametinib) treatment, cell viability (P31/Fuj AML cells; ATRA pre-treatment for five days, then trametinib, P31/Fuj cells (FIG. 2B)) | phosphorylation of the MAPK and PI3K pathway markers ERK1 pY204 and c-MYC pT58/pS62 (P31/Fuj cells; ATRA 1 or 10 μM, 5 days, P31/Fuj cells (FIG. 9B)) | phosphorylation of CEBPE and LTB4R (P31/Fuj cells; ATRA 1 or 10 μM, 5 days, dose-dependent manner, P31/Fuj cells (FIG. 9B)) | axes containing CDKL5 and stress kinases such as STK4 (P31/Fuj cells; ATRA 5 days, P31/Fuj cells) | phosphorylation of MAPK1 and PI3K signaling axes (P31/Fuj cells; ATRA 5 days, P31/Fuj cells) |
| --- | --- | --- | --- | --- | --- | --- |
| Cl.Cl.NC1CCC(N[C@@H]2C[C@H]2c2ccccc2)CC1 (relative stereo) [ORY-1001, rel-N1-[(1R,2S)-2-phenylcyclopropyl]-1,4-cyclohexanediamine, dihydrochloride] | synergistic interactions with MEKi | – | – | – | – | – |
| CC1=C(/C=C/C(C)=C/C=C/C(C)=C/C(=O)O)C(C)(C)CCC1 [ATRA, all-trans-retinoic acid] | – | sensitised myeloid P31/Fuj cells to MEKi treatment | decreased | increasing | increasing | decreased |
| COc1ccc(-c2c(-c3ccc(C#N)c(F)c3)nc(N3CCC(N)CC3)n(C)c2=O)cc1F [CC-90011] | synergistic interactions with MEKi | – | – | – | – | – |
